Results taken from the NIST ThermoML archive (doi:10.1016/j.jct.2016.06.017).

Key:
[1] = 100 kPa, Liquid, Frequency=0.01 MHz, Alternating current cell with electrodes
[2] = xn = mol fraction of the nth substance listed; details: 100 kPa, Liquid, Frequency=0.01 MHz, Alternating current cell with electrodes

CCCCn1cc[n+](C)c1.N#CN=C=[N-] [1-butyl-3-methylimidazolium dicyanamide]
[1]
Details	electrical conductivity [S/m]
273.15 K	0.383
283.15 K	0.636
293.15 K	0.972
298.15 K	1.17
303.15 K	1.39
313.15 K	1.89
323.15 K	2.46

CCCCn1cc[n+](C)c1.N#CN=C=[N-] [1-butyl-3-methylimidazolium dicyanamide] + O=C1CCCO1
[2], x1 = 1
Details	electrical conductivity [S/m]
273.15 K	0.383
283.15 K	0.636
293.15 K	0.972
298.15 K	1.17
303.15 K	1.39
313.15 K	1.89
323.15 K	2.46

O=C1CCCO1 [γ-butyrolactone] + CCCCn1cc[n+](C)c1.N#CN=C=[N-]
electrical conductivity [S/m], [2]
Details	x2 = 0.0504	x2 = 0.1002	x2 = 0.2002	x2 = 0.2984	x2 = 0.4005	x2 = 0.4954	x2 = 0.6957	x2 = 0.8871
273.15 K	1.05	1.4	1.518	1.35	1.13	0.924	0.639	0.454
283.15 K	1.27	1.71	1.918	1.77	1.54	1.32	0.968	0.736
293.15 K	1.5	2.03	2.35	2.24	2.012	1.78	1.37	1.09
298.15 K	1.62	2.2	2.58	2.49	2.27	2.03	1.606	1.3
303.15 K	1.74	2.38	2.814	2.75	2.53	2.29	1.85	1.53
313.15 K	1.98	2.73	3.301	3.29	3.101	2.87	2.401	2.04
323.15 K	2.23	3.09	3.81	3.87	3.707	3.48	3.009	2.625
